Test system: Eimeria Tenella (Weybridge) sporozites
Assay: in vitro anti-coccidial activity, primary explant cultures of chick embryo liver cells with sporozites
Type: cell-based
Conditions: with sulphaquinoxaline 0.01 μg/ml and diaveridine 0.031 μg/ml
Experimental: The anti-coccidial activity of compounds of formula (III) alone and in combination with a mixture of diaveridine (DV) and sulphaquinoxaline (SQX) in vitro was tested according to the following procedure.
Using standard test procedures employing primary explant cultures of chick embryo liver cells and a suspension of Eimeria Tenella (Weybridge) sporozites the activity of the compounds was determined at various concentrations. In the above test, each test compound was used either alone or in combination with sulphaquinoxaline (0.01 μg/ml) and diaveridine (0.031 μg/ml). It should be noted that the minimum active anti-coccidial amounts of sulphaquinoxaline and diaveridine are 0.024 μg/ml and 0.098 μg/ml respectively.
The following results were obtained wherein activity is expressed as follows: […]

Row | SMILES | Activity, with DV/SQX (100 μg/ml) | Activity, with DV/SQX (25 μg/ml)
1 | COC(=O)C1=NN(C)c2nc(N)[nH]c(=O)c2C(c2cc(OC)c(OC)c(OC)c2)=C1 [Example 6, 8-Amino-3-carbomethoxy-1-methyl-5-(3,4,5-trimethoxyphenyl)-1H-pyrimido{4,5-c}-1,2-diazepin-6(7H)-one] | 5 (No parasite development) | –
2 | CCOC(=O)C1=NN(C)c2nc(N)[nH]c(=O)c2C(c2ccc(OC)cc2OC)=C1 [Example 7, 8-Amino-3-carbethoxy-1-methyl-5-(2,4-dimethoxyphenyl)-1H-pyrimido{4,5-c}-1,2-diazepin-6(7H)-one] | 5 (No parasite development) | 5 (No parasite development)

From patent US4260758A, “Pyrazolo (3,4-d) pyrimidines and methods of making” (Burroughs Wellcome Co., priority 1979, dated 1981)
